Source: PMC8196787, “Design and Pharmacodynamics of Recombinant Fungus Defensin NZL with Improved Activity against Staphylococcus hyicus In Vitro and In Vivo” (International Journal of Molecular Sciences, 2021)
In brackets after ≈: the same amount, converted by molar mass. Positions of bridges follow the written chain, without caps; N, C: chain ends. Residues, ends and D or L forms follow the SMILES beside them.

Key:
S. aureus ATCC 43300 = assay: microbe, parasite or virus in culture; type: cell-based; conditions: S. aureus ATCC 43300; microbroth dilution, MHB, 1 × 10^5 CFU/mL, 37 °C, 16–20 h, peptides 1–256 μg/mL, triplicate
Method: (§1) The microbroth dilution method was used to evaluate the MIC values of new derivative peptides. […] The MIC value was defined as the lowest concentration where no visible bacteria growth occurred after overnight incubation. CRO was used as the positive control. All assays were conducted in triplicate.

S. hyicus ACCC 61734 = assay: microbe, parasite or virus in culture; type: cell-based; conditions: S. hyicus ACCC 61734 (clinical strain); microbroth dilution, MHB, 37 °C, 16–20 h, triplicate
Method: as §1

Work on `CC[C@H](C)[C@@H]1NC(=O)[C@H](CO)NC(=O)[C@H](CCCCN)NC(=O)[C@@H]2CSSC[C@@H](C(=O)N[C@@H](Cc3ccc(O)cc3)C(=O)O)NC(=O)[C@H](CCCCN)NC(=O)[C@@H]3CSSC[C@H](NC(=O)[C@H](CCC(N)=O)NC(=O)[C@H](CC(C)C)NC(=O)[C@H](CC(=O)O)NC(=O)[C@H](CC(=O)O)NC(=O)[C@H](CCC(=O)O)NC(=O)[C@H](CO)NC(=O)[C@H](Cc4c[nH]c5ccccc45)NC(=O)[C@@H]4CCCN4C(=O)CNC(=O)[C@H](CC(N)=O)NC(=O)[C@@H](NC(=O)CNC(=O)[C@H](Cc4ccccc4)NC(=O)CN)CSSC[C@H](NC(=O)[C@H](Cc4ccc(O)cc4)NC(=O)CNC(=O)CNC(=O)[C@H](CCCCN)NC(=O)[C@H](Cc4ccc(O)cc4)NC(=O)CNC(=O)[C@H](CCCCN)NC1=O)C(=O)N[C@@H](C)C(=O)N[C@@H](CCCNC(=N)N)C(=O)NCC(=O)NCC(=O)N[C@@H](Cc1ccccc1)C(=O)N[C@@H](C(C)C)C(=O)N3)C(=O)N[C@@H](Cc1c[nH]cn1)C(=O)N[C@@H](CC(N)=O)C(=O)N[C@@H](Cc1c[nH]cn1)C(=O)N2` [Peptide 7] (H-GFGCNGPWSEDDLQCHNHCKSIKGYKGGYCARGGFVCKCY-OH; disulfide 4-30, 15-37, 19-39; N-terminus and C-terminus assumed) yielded an MIC (S. aureus ATCC 43300) of 2 µg/mL (≈ 0.456 µM) and an MIC (S. hyicus ACCC 61734) of 4 µg/mL (≈ 0.912 µM).
In the case of `CC[C@H](C)[C@@H]1NC(=O)[C@H](CO)NC(=O)[C@H](CCCCN)NC(=O)[C@@H]2CSSC[C@@H](C(=O)N[C@@H](Cc3ccc(O)cc3)C(=O)O)NC(=O)[C@H](CCCCN)NC(=O)[C@@H]3CSSC[C@H](NC(=O)[C@H](CCCCN)NC(=O)[C@H](CC(C)C)NC(=O)[C@H](CC(=O)O)NC(=O)[C@H](CC(=O)O)NC(=O)[C@H](CCC(=O)O)NC(=O)[C@H](CCC(N)=O)NC(=O)[C@H](Cc4c[nH]c5ccccc45)NC(=O)[C@@H]4CCCN4C(=O)CNC(=O)[C@H](CC(N)=O)NC(=O)[C@@H](NC(=O)CNC(=O)[C@H](Cc4ccccc4)NC(=O)CN)CSSC[C@H](NC(=O)[C@H](Cc4ccc(O)cc4)NC(=O)CNC(=O)CNC(=O)[C@H](CCCCN)NC(=O)[C@H](Cc4ccc(O)cc4)NC(=O)CNC(=O)[C@H](CCCCN)NC1=O)C(=O)N[C@@H](C)C(=O)N[C@@H](CO)C(=O)N[C@@H](C)C(=O)NCC(=O)N[C@@H](Cc1ccccc1)C(=O)N[C@@H](C(C)C)C(=O)N3)C(=O)N[C@@H](Cc1c[nH]cn1)C(=O)N[C@@H](CC(N)=O)C(=O)N[C@@H](Cc1c[nH]cn1)C(=O)N2` [Peptide 9] (H-GFGCNGPWQEDDLKCHNHCKSIKGYKGGYCASAGFVCKCY-OH; disulfide 4-30, 15-37, 19-39; N-terminus and C-terminus assumed), the MIC (S. aureus ATCC 43300) is reported as 4 µg/mL (≈ 0.915 µM) and the MIC (S. hyicus ACCC 61734) is reported as 8 µg/mL (≈ 1.83 µM).
With `CC[C@H](C)[C@@H]1NC(=O)[C@H](CO)NC(=O)[C@H](CCCCN)NC(=O)[C@@H]2CSSC[C@@H](C(=O)N[C@@H](Cc3ccc(O)cc3)C(=O)O)NC(=O)[C@H](CCCCN)NC(=O)[C@@H]3CSSC[C@H](NC(=O)[C@H](CCC(N)=O)NC(=O)[C@H]([C@@H](C)CC)NC(=O)[C@H](CC(=O)O)NC(=O)[C@H](CC(=O)O)NC(=O)[C@H](CCC(=O)O)NC(=O)[C@H]([C@@H](C)O)NC(=O)[C@H](Cc4c[nH]c5ccccc45)NC(=O)[C@@H]4CCCN4C(=O)CNC(=O)[C@H](CC(N)=O)NC(=O)[C@@H](NC(=O)CNC(=O)[C@H](Cc4ccccc4)NC(=O)CN)CSSC[C@H](NC(=O)[C@H](Cc4ccc(O)cc4)NC(=O)CNC(=O)CNC(=O)[C@H](CCCCN)NC(=O)[C@H](Cc4ccc(O)cc4)NC(=O)CNC(=O)[C@H](CCCCN)NC1=O)C(=O)N[C@@H](C)C(=O)N[C@@H](CCCNC(=N)N)C(=O)NCC(=O)NCC(=O)N[C@@H](Cc1ccccc1)C(=O)N[C@@H](C(C)C)C(=O)N3)C(=O)N[C@@H](Cc1c[nH]cn1)C(=O)N[C@@H](CC(N)=O)C(=O)N[C@@H](Cc1c[nH]cn1)C(=O)N2` [Peptide 10] (H-GFGCNGPWTEDDIQCHNHCKSIKGYKGGYCARGGFVCKCY-OH; disulfide 4-30, 15-37, 19-39; N-terminus and C-terminus assumed) the MIC (S. aureus ATCC 43300) was >128 µg/mL and the MIC (S. hyicus ACCC 61734) was >128 µg/mL.
